Values of other authors as cited in US20120141548A1, “NOVEL FORMULATION OF MELOXICAM” (FUNDACIONUNIVERSIDAD DEL NORTE, priority 2009, published 2012).

Columns and labels:
[1] = conventional meloxicam

Tmax [1]: 4 to 5 h
water solubility: poorly water soluble
SMILES: Cc1cnc(NC(=O)C2=C(O)c3ccccc3S(=O)(=O)N2C)s1 [Meloxicam, meloxicam]
